Laboratory results taken from paper PMC5724969 (Nature chemical biology, 2017).
Like-named read-outs stand apart in the source and are kept apart here.

System: chPylRS (chimeric pyrrolysyl-tRNA synthetase)
Test: […]-tRNA aminoacylation assay, nuclease P1/TLC
Assay type: biochemical, Methanosarcina mazei; Methanosarcina barkeri
Details: tRNA(Pyl), 10 mM MgCl2, pH 7.2

| SMILES | Km (read-out: KM ^ATP, BocK as amino acid) [µM] | Km (read-out: KM^BocK, ATP) [µM] |
| --- | --- | --- |
| Nc1ncnc2c1ncn2[C@@H]1O[C@H](COP(=O)(O)OP(=O)(O)OP(=O)(O)O)[C@@H](O)[C@H]1O [ATP] | 2.54 ± 0.16 | – |
| CC(C)(C)OC(=O)NCCCC[C@H](N)C(=O)O [compound 2, BocK] | – | 1030 ± 50 |
